Laboratory results as given in US12378249B2, “Isoquinoline compounds and uses thereof” (Genentech, Inc., priority 2018, dated 2025).

What follows are compounds tested against HPK1 (Homo sapiens (Human), UniProt Q92918, S171E/T165E) (assay: HPK1-FL HTRF Enzymatic Assay (HTRF)). Settings: HPK full length T165E S171E 0.125 nM, ATP 1 mM, Biotin-SLP76 100 nM, read-out: HPK1 Ki (nM), H = HTRF.
Chain of HPK1 (Q92918 whole entry T165E/S171E): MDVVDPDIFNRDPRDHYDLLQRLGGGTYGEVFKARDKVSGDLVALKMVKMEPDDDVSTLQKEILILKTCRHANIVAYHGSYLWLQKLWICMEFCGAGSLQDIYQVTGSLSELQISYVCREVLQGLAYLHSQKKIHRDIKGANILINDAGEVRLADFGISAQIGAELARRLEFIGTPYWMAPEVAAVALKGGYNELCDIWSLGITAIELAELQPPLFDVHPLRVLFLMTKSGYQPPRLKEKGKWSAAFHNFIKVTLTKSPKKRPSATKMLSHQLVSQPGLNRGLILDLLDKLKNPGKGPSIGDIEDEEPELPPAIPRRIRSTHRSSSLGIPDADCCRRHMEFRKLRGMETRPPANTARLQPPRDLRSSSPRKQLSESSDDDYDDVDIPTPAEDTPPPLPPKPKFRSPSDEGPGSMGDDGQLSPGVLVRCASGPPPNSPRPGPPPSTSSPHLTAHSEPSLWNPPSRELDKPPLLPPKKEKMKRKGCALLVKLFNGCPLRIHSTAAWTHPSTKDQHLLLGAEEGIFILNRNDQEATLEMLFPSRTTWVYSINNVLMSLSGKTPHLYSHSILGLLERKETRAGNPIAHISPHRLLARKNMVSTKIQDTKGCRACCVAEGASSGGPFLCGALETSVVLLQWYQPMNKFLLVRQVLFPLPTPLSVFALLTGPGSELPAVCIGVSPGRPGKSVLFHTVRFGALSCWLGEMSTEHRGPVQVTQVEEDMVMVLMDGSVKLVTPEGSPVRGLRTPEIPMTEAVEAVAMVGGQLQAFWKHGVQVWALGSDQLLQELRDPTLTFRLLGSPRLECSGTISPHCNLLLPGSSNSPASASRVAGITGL
Type: biochemical
In short: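 Full-length HPK1 double mutant, preincubated 30 min with compound, then phosphorylates Biotin-SLP-76 at 1 mM ATP for 60 min in HEPES pH 7.5/MgCl2/TCEP/Brij-35 buffer. Phospho-product detected by TR-FRET (Eu-anti-pSLP76, SA-XL665) after 60 min; 665/620 ratio gives % activity, from which Ki is determined.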
Cc1c(-c2cc3cc(Nc4cc5n(n4)Cc4nccn4CC5)ncc3c(F)c2F)cnc2c1NCCO2 [Compound 161, N-(7,8-difluoro-6-(8-methyl-2,3-dihydro-1H-pyrido[2,3-b][1,4]oxazin-7-yl)isoquinolin-3-yl)-5,6-dihydro-11H-imidazo[1,2-a]pyrazolo[1,5-d][1,4]diazepin-8-amine] showed a Ki of 0.014 nM. CN1CCc2cc(Nc3cc4cc(-c5cccc6c5CCNC6)c(F)cc4cn3)nn2CC1=O [Compound 200, 2-((7′-fluoro-1,2,3,4-tetrahydro-[5,6′-biisoquinolin]-3′-yl)amino)-6-methyl-5,6-dihydro-4H-pyrazolo[1,5-d][1,4]diazepin-7(8H)-one] gave a Ki of 127 nM. In the case of Cc1c(-c2cc3cc(Nc4cc5n(n4)CC(=O)NCC5)ncc3cc2F)cnc2c1NCCC2=O [Compound 196, 2-((7-fluoro-6-(4-methyl-8-oxo-5,6,7,8-tetrahydro-1,5-naphthyridin-3-yl)isoquinolin-3-yl)amino)-5,6-dihydro-4H-pyrazolo[1,5-d][1,4]diazepin-7(8H)-one], the Ki is reported as 0.1 nM. Work on Cc1c(-c2ccc3cnc(Nc4cc5n(n4)CC(=O)N(CCO)CC5)cc3c2F)cnc2c1NCCO2 [Compound 146, 2-((5-fluoro-6-(8-methyl-2,3-dihydro-1H-pyrido[2,3-b][1,4]oxazin-7-yl)isoquinolin-3-yl)amino)-6-(2-hydroxyethyl)-5,6-dihydro-4H-pyrazolo[1,5-d][1,4]diazepin-7(8H)-one] yielded a Ki of 0.034 nM. Work on Cc1c(-c2cc3cc(Nc4cc5n(n4)CC(=O)N(C)CC5)ncc3cc2F)cnc2c1NS(=O)(=O)CO2 [Compound 193, 2-((7-fluoro-6-(8-methyl-2,2-dioxido-1H,3H-pyrido[3,2-e][1,3,4]oxathiazin-7-yl)isoquinolin-3-yl)amino)-6-methyl-5,6-dihydro-4H-pyrazolo[1,5-d][1,4]diazepin-7(8H)-one] yielded a Ki of 23 nM. Cc1c(NS(=O)(=O)C2CC2)cncc1-c1cc2cc(Nc3cc4n(n3)CC(=O)N(C)CC4)ncc2cc1F [Compound 197, N-(5-(7-fluoro-3-((6-methyl-7-oxo-5,6,7,8-tetrahydro-4H-pyrazolo[1,5-d][1,4]diazepin-2-yl)amino)isoquinolin-6-yl)-4-methylpyridin-3-yl)cyclopropanesulfonamide] was tested, and the Ki was 4.1 nM. Cc1c(-c2cc3cc(Nc4cc5n(n4)CC(=O)N(C)CC54CC4)ncc3cc2F)cnc2c1NCC[C@]2(C)O (single isomer, unassigned) [Compound 229a] showed a Ki of 0.09 nM. Cc1c(-c2cc3cc(Nc4cc5n(n4)CC(=O)N(C(C)C#N)CC5)ncc3cc2F)cnc2c1NCCO2 (single isomer, unassigned) [Compound 147b] gave a Ki of 0.013 nM. Cc1ccncc1-c1ccc2cnc(Nc3cc4n(n3)CC(=O)N(C(C)C)CC4)cc2c1 [Compound 122, 6-isopropyl-2-[[6-(4-methyl-3-pyridyl)-3-isoquinolyl]amino]-5,8-dihydro-4H-pyrazolo[1,5-d][1,4]diazepin-7-one] gave a Ki of 1 nM. Cc1c(N)cncc1-c1cc2cc(Nc3cc4n(n3)CC(=O)N(CCN3CC(F)C3)CC4)ncc2cc1F [Compound 164, 2-((6-(5-amino-4-methylpyridin-3-yl)-7-fluoroisoquinolin-3-yl)amino)-6-(2-(3-fluoroazetidin-1-yl)ethyl)-5,6-dihydro-4H-pyrazolo[1,5-d][1,4]diazepin-7(8H)-one] gave a Ki of 0.013 nM. With Cc1c(-c2cc3cc(Nc4cc5n(n4)CC(=O)N(C)CC5)ncc3cc2F)cnc2c(=O)n(C)[nH]c12 [Compound 209, 2-((6-(2,7-dimethyl-3-oxo-2,3-dihydro-1H-pyrazolo[4,3-b]pyridin-6-yl)-7-fluoroisoquinolin-3-yl)amino)-6-methyl-5,6-dihydro-4H-pyrazolo[1,5-d][1,4]diazepin-7(8H)-one] the Ki was 1.9 nM. In the case of Cc1c(-c2cc3cc(Nc4ccn([C@@H](C)C#N)n4)ncc3cc2F)cnc2c1NCCO2 (single isomer, unassigned) [Compound 109b, 2-(3-((7-fluoro-6-(8-methyl-2,3-dihydro-1H-pyrido[2,3-b][1,4]oxazin-7-yl)isoquinolin-3-yl)amino)-1H-pyrazol-1-yl)propanenitrile], the Ki is reported as 1.19 nM. Compound CO[C@H]1CCNc2c1ncc(-c1cc(F)c3cnc(Nc4cc5n(n4)CC(=O)N(C)CC5)cc3c1)c2C (single isomer, unassigned) [Compound 234a] has a Ki of 0.46 nM. In the case of Cc1c(N)cnnc1-c1cc2cc(Nc3cc4n(n3)CC(=O)N(C)CC4)ncc2cc1F [Compound 216, 2-((6-(5-amino-4-methylpyridazin-3-yl)-7-fluoroisoquinolin-3-yl)amino)-6-methyl-5,6-dihydro-4H-pyrazolo[1,5-d][1,4]diazepin-7(8H)-one], the Ki is reported as 2.3 nM. Compound Cc1cc(CN)ccc1-c1cc2cc(Nc3cc4n(n3)CC(=O)N(C)CC4)ncc2cc1F [Compound 213, 2-((6-(4-(aminomethyl)-2-methylphenyl)-7-fluoroisoquinolin-3-yl)amino)-6-methyl-5,6-dihydro-4H-pyrazolo[1,5-d][1,4]diazepin-7(8H)-one] has a Ki of 25 nM. In the case of Cc1c[nH]c2c(C)c(-c3cc4cc(Nc5cc6n(n5)CC(=O)N(C)CC6)ncc4cc3F)cnc12 [Compound 195, 2-((6-(3,7-dimethyl-1H-pyrrolo[3,2-b]pyridin-6-yl)-7-fluoroisoquinolin-3-yl)amino)-6-methyl-5,6-dihydro-4H-pyrazolo[1,5-d] [1,4]diazepin-7(8H)-one], the Ki is reported as 0.26 nM. Cc1ccncc1-c1cc2cc(Nc3cc4n(n3)CC(=O)N(C(C)C)CC4)ncc2cc1F [Compound 131, 2-[[7-fluoro-6-(4-methyl-3-pyridyl)-3-isoquinolyl]amino]-6-isopropyl-5,8-dihydro-4H-pyrazolo[1,5-d][1,4]diazepin-7-one] was tested, and the Ki was 2.5 nM. For Cc1c(N)cncc1-c1cc2cc(Nc3cc4n(n3)Cc3nccn3CC4)ncc2cc1F [Compound 125, N-(6-(5-amino-4-methylpyridin-3-yl)-7-fluoroisoquinolin-3-yl)-5,6-dihydro-11H-imidazo[1,2-a]pyrazolo[1,5-d][1,4]diazepin-8-amine], the Ki was 0.03 nM. For Cc1c(-c2cc3cc(Nc4cc5n(n4)CC(=O)N(C)CC5)ncc3cc2F)cnc2c1N(C)CCO2 [Compound 162, 2-((6-(1,8-dimethyl-2,3-dihydro-1H-pyrido[2,3-b][1,4]oxazin-7-yl)-7-fluoroisoquinolin-3-yl)amino)-6-methyl-5,6-dihydro-4H-pyrazolo[1,5-d][1,4]diazepin-7(8H)-one], the Ki was 0.43 nM. Cc1c(NC2CNC2)cncc1-c1cc2cc(Nc3cc4n(n3)Cc3nccn3CC4)ncc2cc1F [Compound 179, N-(6-(5-(azetidin-3-ylamino)-4-methylpyridin-3-yl)-7-fluoroisoquinolin-3-yl)-5,6-dihydro-11H-imidazo[1,2-a]pyrazolo[1,5-d][1,4]diazepin-8-amine] gave a Ki of 0.5 nM. Cc1c(-c2cc(F)c3cnc(Nc4cc5n(n4)CC(=O)N(C)CC54CC4)cc3c2)cnc2c1NCC[C@H]2O (single isomer, unassigned) [Compound 237b] was tested, and the Ki was 0.319 nM. Cc1c(N)cncc1-c1cc(Cl)c2cnc(Nc3cc4n(n3)CC(=O)N(C(C)C)CC4)cc2c1 [Compound 117, 2-((6-(5-amino-4-methylpyridin-3-yl)-8-chloroisoquinolin-3-yl)amino)-6-isopropyl-5,6-dihydro-4H-pyrazolo[1,5-d][1,4]diazepin-7(8H)-one] showed a Ki of 0.64 nM. CN[C@@H]1CCN(c2cc(C)c(-c3cc4cc(Nc5cc6n(n5)CC(=O)N(C)CC6)ncc4cc3F)cn2)C1 (single isomer, unassigned) [Compound 206a] gave a Ki of 6.7 nM. For Cc1c(N)cncc1-c1cc2cc(Nc3cc4n(n3)CC(=O)NCC4)ncc2cc1F [Compound 144, 2-((6-(5-amino-4-methylpyridin-3-yl)-7-fluoroisoquinolin-3-yl)amino)-5,6-dihydro-4H-pyrazolo[1,5-d][1,4]diazepin-7(8H)-one], the Ki was 0.062 nM. Work on Cc1c(N)cncc1-c1cc2cc(Nc3cc4n(n3)CC(=O)N(C(C)C#N)CC4)ncc2cc1F (single isomer, unassigned) [Compound 154b] yielded a Ki of 0.032 nM. In the case of Cc1c(-c2cc3cc(Nc4cc5n(n4)CC(=O)N(C)CC5)ncc3cc2F)cnc2nc[nH]c12 [Compound 175, 2-((7-fluoro-6-(7-methyl-1H-imidazo[4,5-b]pyridin-6-yl)isoquinolin-3-yl)amino)-6-methyl-5,6-dihydro-4H-pyrazolo[1,5-d][1,4]diazepin-7(8H)-one], the Ki is reported as 0.14 nM. Work on Cc1c(-c2cc3cc(Nc4cc5n(n4)CC(=O)N(C)CC5)ncc3cc2F)ccc2c1CNC2 [Compound 221, 2-((7-fluoro-6-(4-methylisoindolin-5-yl)isoquinolin-3-yl)amino)-6-methyl-5,6-dihydro-4H-pyrazolo[1,5-d][1,4]diazepin-7(8H)-one] yielded a Ki of 97 nM. Work on Cc1c(-c2cc3cc(Nc4cc5n(n4)CC(=O)NCC5)ncc3cc2F)cnc2c1NC(C)CO2 (racemic) [Compound 182, (+/−)-2-((6-(2,8-dimethyl-2,3-dihydro-1H-pyrido[2,3-b][1,4]oxazin-7-yl)-7-fluoroisoquinolin-3-yl)amino)-5,6-dihydro-4H-pyrazolo[1,5-d][1,4]diazepin-7(8H)-one] yielded a Ki of 0.073 nM. Work on Cc1c(-c2cc3cc(Nc4cc5n(n4)CC(=O)N(C)CC54CC4)ncc3cc2F)cnc2c1NCC[C@H]2O (single isomer, unassigned) [Compound 205a] yielded a Ki of 0.013 nM. Cc1c(-c2cc(F)c3cnc(Nc4cc5n(n4)CC(=O)N(C)CC5)cc3c2)cnc2c1NCC[C@@]2(C)O (single isomer, unassigned) [Compound 231a] gave a Ki of 1.3 nM. For Cc1ncc(-c2cc(F)c3cnc(Nc4cc5n(n4)CC(=O)NCC5)cc3c2)c(C)c1N [Compound 233, 2-((6-(5-amino-4,6-dimethylpyridin-3-yl)-8-fluoroisoquinolin-3-yl)amino)-5,6-dihydro-4H-pyrazolo[1,5-d][1,4]diazepin-7(8H)-one], the Ki was 0.155 nM.
